Measured values: ChEMBL document CHEMBL4002613, “Shape-based virtual screening, synthesis and evaluation of novel pyrrolone derivatives as antiviral agents against HCV” (Bioorg Med Chem Lett, 2017)

Key:
[1] = Selectivity index, ratio of CC50 for human HuH5.2 cells to EC50 for Hepatitis C virus genotype 1b infected in human HuH5.2 cells; type: toxicity, cell-based; conditions: for selectivity ratio: HuH5.2 cells, read-out: Ratio CC50/EC50
Hepatitis C virus = experiment: Antiviral activity against Hepatitis C virus genotype 1b infected in human HuH5.2 cells after 72 hrs by luciferase reporter gene assay; type: functional, cell-based, Hepacivirus hominis
[2] = (§1) Cytotoxicity against human HuH5.2 cells assessed as anti-metabolic effect after 72 hrs by MTT assay; type: ADME, cell-based, Huh-5-2; conditions: HuH5.2 (Huh-5-2) cells
[3] = Inhibition of Hepatitis C virus genotype 1b NS3 helicase unwinding activity using fluorescent DNA substrate by molecular beacon assay; design: species or system Hepatitis C virus subtype 1b
[4] = Inhibition of Hepatitis C virus genotype 1b Con1 NS3 helicase ATP hydrolysis activity using ATP as substrate in presence of poly U RNA; design: species or system Hepatitis C virus (isolate Con1)
Huh-5-2 = experiment: as §1; type: ADME, cell-based; conditions: huh-5-2, 72 h, 72 h
[5] = Hepatitis C virus, genotype 1b, Huh-5-2, 72 h

Row | Compound | selectivity ratio [1] | EC50 (Hepatitis C virus; [5]) [µM] | EC90 (Hepatitis C virus; [5]) [µM] | CC50 at 72 h [2] [µM] | IC50 [3] [mM] | IC50 [4] [µM] | EC90 (Hepatitis C virus) [µM] | Ratio CC50/EC50 [1] | EC50 (Hepatitis C virus) [µM] | CC50 (Huh-5-2) [µM]
1 | N=c1c(S(=O)(=O)c2ccc(Cl)cc2)cc2c(=O)n3ccccc3nc2n1CCN1CCOCC1 | 5.4 | 28 | 97.6 | 151 |  |  |  |  |  | 
2 | Cc1ccc2nc(-c3ccc4nc(-c5ccc(N)cc5)sc4c3)sc2c1S(=O)(=O)O |  |  |  |  | 0.01 |  |  |  |  | 
3 | Oc1c(CN2CCOCC2)cc(CN2CCOCC2)cc1CN1CCOCC1 |  | > 255 | > 255 | > 255 |  |  |  |  |  | 
4 | CCOC(=O)c1ccc(/C=C2/C=C(c3ccccc3)N(c3ccc(C)cc3C)C2=O)cc1 | 2.1 to 58.8 | 0.8 to 43.1 |  | 47 to 90.8 | > 1 |  |  |  |  | 
5 | CCOC(=O)c1ccc(/C=C2/C=C(c3ccccc3)N(c3ccccc3)C2=O)cc1 | 4 | 27.2 | 100 | 112 | > 1 |  |  |  |  | 
6 | CN1CCN(CC2=C(O)C(=O)N(CCc3ccccc3)C3C=CC=CN23)CC1 (configuration not stated) |  | 235 | > 264 | > 264 |  |  |  |  |  | 
7 | Cc1ccc(N2C(=O)/C(=C\c3ccccc3)C=C2c2ccccc2)c(Br)c1 | > 58 | 4.1 | 12.4 | > 240 | > 1 | 620 |  |  |  | 
8 | O=C1/C(=C\c2ccc(Br)cc2)C=C(c2ccccc2)N1c1ccccc1 | 6 | 4.3 | 11.6 | 25.7 | > 1 |  |  |  |  | 
9 | O=C1/C(=C\c2ccc(-c3ccccc3)cc2)C=C(c2ccccc2)N1c1ccccc1 | 9.7 | 16.1 | 61.7 | 156 | > 1 |  |  |  |  | 
10 | CN(C)c1ccc(/C=C2\C(=O)N(c3ncc(-c4ccc(Cl)cc4)s3)N=C2c2ccccc2)cc1 | > 1.4 | 147 | > 206 | > 206 |  |  |  |  |  | 
11 | O=C1/C(=C\c2ccccc2)C=C(c2ccccc2)N1c1ccccc1 | 6.4 | 4.7 | 14 | 30.3 | > 1 |  |  |  |  | 
12 | COc1ccc(/C=C2/C=C(c3ccccc3)N(c3ccccc3)C2=O)cc1 | 18 | 5.9 | 21.6 | 97.2 | 0.438 |  |  |  |  | 
13 | CCOC(=O)c1ccc(/C=C2/C=C(c3ccccc3)N(c3ccc(C)cc3)C2=O)cc1 | > 11 | 22.5 | 81.1 | > 244 | > 1 |  |  |  |  | 
14 | CN1CCN(Cc2c3c(c(CN4CCN(C)CC4)c4c2CCC4)CCC3)CC1 | 4.8 | 7.7 |  | 36.9 |  |  |  |  |  | 
15 | CCOC(=O)c1ccc(/C=C2\C=C(c3ccccc3)N(c3ccc(C)cc3Br)C2=O)cc1 (stereo in doubt; form 1) |  | 38 to 38.3 |  | 204 to 205 |  |  | 149 |  |  | 
16 | CCOC(=O)c1ccc(/C=C2\C=C(c3ccccc3)N(c3ccc(C)cc3Br)C2=O)cc1 (stereo in doubt; form 2) |  |  |  |  | > 1 |  | 61.7 | > 10 | 20.3 | > 205
17 | O=C(O)C1=CC(=C(c2ccc(O)c(C(=O)O)c2)c2ccc(O)c(C(=O)O)c2)C=CC1=O [AURINTRICARBOXYLIC ACID] |  |  |  |  | 0.0003 |  |  |  |  | 
